Literature values in patent publication US20020099506A1, “Methods and apparatus for predicting ligand binding interactions” (priority 2000, published 2002).
Entries after “also recorded” stand apart in the source; their conditions may differ.

System: olfactory receptor S25 (OR S25)
Conditions: data of Malnic et al.; 24 odorants of 4-9 carbon atoms

Q: Which “experimental odor response of S25” value does the source give for CCCCCCCO [heptanol] here?
A: responds positively; also recorded: elicited measurable responses

Q: With CCCCCCO [hexanol] as the compound, how does the “experimental odor response of S25” value read?
A: responds positively; also recorded: elicited measurable responses

System: olfactory receptor S18
Conditions: according to Malnic et al.

Q: With O=C(O)CCCCCCCBr [8-bromo-octanoic acid] as the compound, how does the “experimental response of S18” value read?
A: responds experimentally

Q: For CCCCCCC(=O)O [heptanoic acid], which “experimental response of S18” value is on record?
A: responds experimentally

Q: Which “experimental response of S18” value does the source give for CCCCCCCCC(=O)O [nonanoic acid] here?
A: responds experimentally

Q: For CCCCCCCCCO [nonanol], which “experimental response of S18” value is on record?
A: responds experimentally

Q: With CCCCCCCC(=O)O [octanoic acid] as the compound, how does the “experimental response of S18” value read?
A: responds experimentally

Q: With CCCCCCCCO [octanol] as the compound, how does the “experimental response of S18” value read?
A: responds experimentally

System: histdyl t-RNA synthetase
Conditions: not given

Q: For N[C@@H](Cc1c[nH]cn1)C(=O)O [histidine], which “recognition by the enzyme (experimental observations)” value is on record?
A: the only ligand recognized by this enzyme
